Experimental data as given in patent publication US20240141414A1, “CELL-FREE BIOSENSORS WITH DNA STRAND DISPLACEMENT CIRCUITS” (Northwestern University, priority 2021, published 2024).

Legend:
Format in all cases: biochemical
[1] = target: T1, SmtB (Synechococcus elongatus, UniProt P30340); test: SmtB-regulated in vitro transcription with TMSD fluorescence output; details: SmtB-regulated reaction, optimized smtO-Hairpin2-InvadeR design
T1 construct: 6xHis (C); made in house; host or cells: E. coli Rosetta 2(DE3)pLysS, pET-28c plasmid (pJBL725)
T1 sequence (P30340 with tags, fused parts or gaps): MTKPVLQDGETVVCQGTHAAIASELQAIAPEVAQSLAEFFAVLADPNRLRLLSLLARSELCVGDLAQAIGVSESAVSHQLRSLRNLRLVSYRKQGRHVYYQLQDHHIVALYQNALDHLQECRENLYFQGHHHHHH
Protocol: (§1) In addition to TetR, we chose TtgR [44] and SmtB [45] as representative aTFs of the MarR family and SmtB/ArsR family, respectively. We placed the cognate operator sequence of each aTF 2-bp downstream of the T7 promoter and immediately upstream of the InvadeR sequences (FIG. 4a-c). When tetracycline was used to induce TetR-regulated reactions, we observed a strong and robust fluorescent signal visible in ˜10 minutes (FIG. 4d, FIG. 13a). […] We note that we observed a slight decrease in the induction speed from the TtgR-regulated reactions compared to that of the TetR-regulated reactions, likely due to the reduced ttgO DNA template concentration needed to accommodate TtgR's relatively weak binding affinity to its operator sequence.
We were immediately successful in adapting the system to TetR and TtgR (FIG. 4a, b). […]
(§2) Regulated IVT reactions additionally included a purified aTF at the indicated concentration and were equilibrated at 37° C. for ˜10 minutes. Immediately prior to plate reader measurements, 2 ng of T7 RNAP and, optionally, a ligand at the indicated concentration were added to the reaction. Reactions were then characterized on a plate reader as described in Plate reader quantification and micromolar equivalent fluorescein (MEF) standardization.

[2] = target: T2, TtgR (Pseudomonas putida, UniProt Q88N29); test: TtgR-regulated in vitro transcription with TMSD fluorescence output; details: TtgR-regulated reactions, with and without ligand
T2 construct: made in house; host or cells: E. coli Rosetta 2(DE3)pLysS, pET-28c plasmid (pJBL721)
T2 sequence (Q88N29 other isoform, or with tags, fused parts or gaps): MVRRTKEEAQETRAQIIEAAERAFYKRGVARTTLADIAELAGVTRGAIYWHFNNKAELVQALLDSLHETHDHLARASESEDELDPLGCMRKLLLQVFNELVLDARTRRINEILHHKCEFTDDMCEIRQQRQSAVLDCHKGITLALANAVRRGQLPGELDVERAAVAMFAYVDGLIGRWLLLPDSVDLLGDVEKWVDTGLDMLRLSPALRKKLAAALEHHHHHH
Protocol: as §1, §2

[3] = target: T3, TetR (Escherichia coli, UniProt P04483)
T3 construct: made in house; host or cells: E. coli Rosetta 2(DE3)pLysS, pET-28c plasmid (pJBL701)
Text: Next, we sought to determine whether the transcription of InvadeR can be regulated with an aTF, thus creating a ligand-responsive biosensor that uses TMSD outputs. This required us to insert an aTF operator sequence in between the T7 promotor and InvadeR sequence to allow an aTF to regulate transcription. […] To test if this spacing remained important in the TMSD platform, we used TetR as our model aTF to determine the optimum spacing for efficient repression in the presence of TetR and efficient transcription in the absence of TetR [41]. […] However, robust fluorescence signal was observed without TetR when using a 2-bp spacer, which was reduced to nearly baseline levels when regulated by TetR. […]
Using the 2-bp spacer, we next determined whether TetR can be de-repressed with its cognate ligand, anhydrotetracycline (aTc) to allow transcription of InvadeR (FIG. 3c). […]
as §2

O=S(=O)([O-])[O-].[Zn+2] [ZnSO4]
fluorescence activation by ligand [1]: clear activation of a SmtB-regulated reaction in the presence of ZnSO4 with low background signal

O=C1C[C@@H](c2ccc(O)cc2)Oc2cc(O)cc(O)c21 [naringenin]
fluorescence activation by ligand [2]: robust fluorescence activation only in the presence of the ligand

Cc1c2c(c(O)c3c(O)cccc13)C(=O)[C@]1(O)C(=O)C(C(N)=O)=C(O)[C@@H](N(C)C)[C@@H]1C2 [aTc, anhydrotetracycline]
time until fluorescence is visible ([3]; TetR-regulated InvadeR output induced with the ligand (aTc 10 μM)): ~10 min | speed of fluorescence activation relative to the RNA aptamer platform ([3]; equimolar amounts of DNA template, TetR and aTc): approximately 5 times
